According to PubChem BioAssay (NCI):
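Interpolation was linear, between the two tested concentrations surrounding the appropriate level; five concentrations were tested over 48 hours in 96-well plates. GI50 is the concentration that inhibits growth by half. TGI denotes the concentration required for complete inhibition of growth.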

Tests used:
Assay in all cases: NCI tumour cell line growth inhibition, 48 h
T-47D breast = system: T-47D breast
PC-3 prostate = system: PC-3 prostate
HT29 colon = system: HT29 colon
SK-MEL-2 melanoma = system: SK-MEL-2 melanoma
OVCAR-4 ovarian = system: OVCAR-4 ovarian
BT-549 breast = system: BT-549 breast
UACC-257 melanoma = system: UACC-257 melanoma
U251 CNS = system: U251 CNS
SK-OV-3 ovarian = system: SK-OV-3 ovarian
OVCAR-5 ovarian = system: OVCAR-5 ovarian
NCI-H460 lung = system: NCI-H460 lung
SR leukemia = system: SR leukemia

Row | Compound | TGI (T-47D breast) [µM] | TGI (PC-3 prostate) [µM] | TGI (HT29 colon) [µM] | TGI (SK-MEL-2 melanoma) [µM] | TGI (OVCAR-4 ovarian) [µM] | TGI (BT-549 breast) [µM] | TGI (UACC-257 melanoma) [µM] | TGI (U251 CNS) [µM] | TGI (SK-OV-3 ovarian) [µM] | TGI (OVCAR-5 ovarian) [µM] | TGI (NCI-H460 lung) [µM] | TGI (SR leukemia) [µM] | GI50 (T-47D breast) [µM] | GI50 (PC-3 prostate) [µM] | GI50 (HT29 colon) [µM] | GI50 (OVCAR-4 ovarian) [µM] | GI50 (BT-549 breast) [µM] | GI50 (SK-OV-3 ovarian) [µM] | GI50 (OVCAR-5 ovarian) [µM] | GI50 (NCI-H460 lung) [µM]
1 | N#Cc1cnn2c1n[n+]([O-])c1ccc(Cl)cc12 | 37.6 | 32.1 | 21.7 | 17.2 | 4.03 | 25.4 | 23 | 32.8 | 23.8 | > 76.8 | 26.5 | – | – | – | – | – | – | – | – | –
2 | CC(C#N)Nc1ccc(Oc2ccc(C(C)(C)c3ccc(Oc4ccc(NC(C)C#N)cc4)cc3)cc2)cc1 (stereo not drawn) | > 100 | > 100 | > 100 | > 100 | > 100 | > 100 | > 100 | > 100 | > 100 | > 100 | > 100 | – | – | – | – | – | – | – | – | –
3 | O=C(Cc1ccccc1)N/N=C(/CCN1CCCC1)CC(c1ccccc1)c1c(O)c2ccccc2oc1=O (stereo not drawn) | – | > 100 | > 100 | > 100 | > 100 | > 100 | > 100 | > 100 | > 100 | > 100 | – | > 100 | – | – | – | – | – | – | – | –
4 | C/C(C=O)=C1\C(O)C[C@]1(C)C1CC(C)(C)CC1O (stereo partly drawn) | – | – | > 100 | > 100 | 93.9 | – | > 100 | > 100 | – | > 100 | > 100 | > 100 | – | – | – | – | – | – | – | –
5 | COc1c(O)cc(/C=C/c2cc(O)cc3c2[C@@]2(C(=O)O3)c3c(O)cc(O)cc3OC2c2cccc(O)c2)cc1O (stereo partly drawn) | > 100 | > 100 | 81.8 | > 100 | 91 | > 100 | > 100 | > 100 | 74.8 | – | 31.9 | 26.5 | – | – | – | – | – | – | – | –
6 | COc1ccc(CCN2CCC(C#N)(c3ccc(OC)c(OC)c3)CC2)cc1OC | – | – | > 100 | > 100 | > 100 | – | > 100 | > 100 | > 100 | > 100 | > 100 | > 100 | – | – | – | – | – | – | – | –
7 | CCCCOC(=O)/C(CC(=O)C=C(C)C)=N\NS(=O)(=O)c1ccc(C)cc1 | – | – | > 100 | > 100 | > 100 | – | > 100 | > 100 | > 100 | > 100 | > 100 | 71.8 | – | – | – | – | – | – | – | –
8 | CC1C2CC(C(C3C(=O)C4CC3C(C)(C)C4C)C2=O)C1(C)C (stereo not drawn) | > 100 | > 100 | > 100 | – | > 100 | > 100 | > 100 | > 100 | > 100 | > 100 | > 100 | > 100 | – | – | – | – | – | – | – | –
9 | CC(=O)c1c2c(cc3c1CC1(Cc4cc5c(cc4C1)CCC5)C3)CCC2 | > 100 | > 100 | > 100 | > 100 | > 100 | – | > 100 | > 100 | > 100 | > 100 | > 100 | > 100 | – | – | – | – | – | – | – | –
10 | C1CSCC2(COC2)CS1 | – | > 100 | > 100 | – | > 100 | – | > 100 | > 100 | > 100 | – | > 100 | > 100 | – | – | – | – | – | – | – | –
11 | O=C1/C(=C/c2cccc([N+](=O)[O-])c2)COc2ccccc21 | – | – | 6.85 | 20 | 6.28 | – | > 64.7 | 6.83 | > 62.8 | > 100 | > 25.2 | – | – | – | – | – | – | – | – | –
12 | O=C1/C(=C/c2cccc([N+](=O)[O-])c2)CCCc2ccccc21 | – | 23 | 24 | 23 | 33.4 | 28.1 | 30.2 | 20.9 | 63.8 | 27.6 | 34.1 | 11 | – | – | – | – | – | – | – | –
13 | Clc1cc(Cl)cc(N2N=C(c3cccc(Nc4ccncc4)c3)CC2c2ccccc2)c1 (stereo not drawn) | 4.2 | 5.15 | 3.73 | – | 3.87 | 28.4 | – | – | 31.9 | 8.74 | 3.37 | – | 1.73 | 1.87 | 1.8 | 1.86 | 6.23 | 13.1 | 2.56 | 1.8
14 | O=C1C(NCCc2cc(Br)c(O)c(Br)c2)=CC(=O)c2ncccc21 | 52 | > 100 | > 30.6 | 29.9 | 16.7 | – | 7.73 | 33 | 68.1 | 20.2 | 5.41 | 6.46 | – | – | – | – | – | – | – | –
15 | O=C(CCN(CCO)CCO)Nc1ccc2c(c1)C(=O)c1ccc(NC(=O)CCN(CCO)CCO)cc1C2=O | – | – | > 100 | 16.8 | > 100 | – | > 100 | > 100 | > 100 | > 100 | 22.7 | > 100 | – | – | – | – | – | – | – | –
16 | COc1ccc2c(OC)c3ccoc3nc2c1O | – | – | > 100 | > 100 | > 100 | – | > 100 | > 100 | > 100 | > 100 | > 100 | – | – | – | – | – | – | – | – | –
17 | CC(=NNC(=S)Nc1ccccc1C)c1cccc(C(C)=NNC(=S)Nc2ccccc2C)n1 | > 100 | > 100 | > 100 | > 100 | 91.7 | – | > 100 | > 100 | > 100 | > 100 | > 100 | 12 | – | – | – | – | – | – | – | –
18 | O=C(Nc1ccccc1)N1CCNC1=S | > 100 | – | > 100 | > 100 | > 100 | > 100 | – | > 100 | > 100 | > 100 | > 100 | > 100 | – | – | – | – | – | – | – | –
19 | CCOC(=O)[C@H]1C[C@@H](C(=O)c2ccccc2)N2N=C(c3ccc(Br)cc3)C=C[C@H]12 | > 100 | > 100 | – | > 100 | > 100 | > 100 | > 100 | > 100 | > 100 | > 100 | > 100 | > 100 | – | – | – | – | – | – | – | –
20 | N#CCCc1nc2ccc(Br)cc2c(=O)n1-c1ccc(O)c([N+](=O)[O-])c1 | – | – | > 100 | 34.7 | 38.8 | – | 74.3 | – | 85.2 | > 100 | 66.9 | – | – | – | – | – | – | – | – | –
21 | Cc1nc2ccccc2nc1NS(=O)(=O)c1ccc(N)cc1 | – | – | > 100 | > 100 | > 100 | – | > 100 | > 100 | – | > 100 | – | > 100 | – | – | – | – | – | – | – | –
